Reference: patent publication US7745450B2, “Pyrazolo[4,3-d]pyrimidines, processes for their preparation and methods for therapy” (Institute of Experimental Botany, priority 2002, dated 2010)
Like-named read-outs stand apart in the source and are kept apart here.

Legend:
normal human lymphocytes = experiment: Immunosuppressive activity, 3H-thymidine incorporation in concanavalin A activated lymphocytes; type: cell-based; details: Lymphocyte, 72 hours, [3H]-TdR, read-out: Human lymphocytes ED50
Description: Human heparinized peripheral blood was obtained from healthy volunteers by cubital vein punction. The blood was diluted in PBS (1:3) and mononuclear cells were separated by centrifugation in Ficoll-Hypaque density gradient (Pharmacia, 1.077 g/ml) at 2200 rpm for 30 minutes. Following centrifugation, lymphocytes were washed in PBS and resuspended in cell culture medium (RMPI 1640, 2 mM glutamine, 100 U/ml penicillin, 100 μg/ml streptomycin, 10% fetal calf serum and sodium bicarbonate).
The cells were diluted at target density of 1.100.000 cells/ml were added by pipette (180 μl) into 96/well microtiter plates. Four-fold dilutions of the intended test concentration were added at time zero in 20 μl aliquots to the microtiter plate wells. Usually, test compound was evaluated at six 4-fold dilutions. In routine testing, the highest well concentration was 266.7 μM. All drug concentrations were examined in duplicates. All wells with exception of unstimulated controls were activated with 50 μl of concanavalin A (25 μg/ml). Incubations of cells with test compounds lasted for 72 hours at 37° C., in 5% CO2 atmosphere and 100% humidity. At the end of incubation period, the cells were assayed by using the [^3H]-TdR:
Cell cultures were incubated with 0.5 μCi (20 μl of stock solution […]) per well for 6 hours at 37° C. and 5% CO2. The automated cell harvester was used to lyse cells in water and adsorb the DNA onto glass-fiber filters in the format of microtiter plate. The DNA incorporated [^3H]-TdR was retained on the filter while unincorporated material passes through. The filters were dried at room temperature overnight, sealed into a sample bag with 10-12 ml of scintillant. The amount of [^3H]-TdR present in each filter (in cpm) was determined by scintillation counting in a Betaplate liquid scintillation counter. The effective dose of immunosuppressant (ED) was calculated using the following equation: ED=(CCPMdrug exposed well/mean CCPMcontrol wells)×100%.

[1] = system: CEM (human lymphoblastoid leukemia); experiment: In vitro cytotoxic activity, Calcein AM; type: cell-based; details: Homo sapiens, 72 h, three days
Outline: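 CEM cells were seeded at 10^4/well in DMEM + 10% FBS and exposed to six concentrations from 200 to 0.2 μM, in triplicate, for 3 days at 37 °C and 5% CO2. Viable cells were then measured by Calcein AM fluorescence after 1 h loading.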

B16 = experiment: In vitro cytotoxic activity, Calcein AM; type: cell-based; details: Mus musculus, B16, 72 h, three days
[2] = system: human melanoma cell line Arn8 (p53-responsive reporter); experiment: p53-dependent transcriptional activity, β-galactosidase reporter; type: cell-based; details: concentration inducing maximum of β-galactosidase activity
Description: Cell lines established from the human cervical carcinoma (HeLa), human breast carcinoma (MCF-7, BT549 and BR474), human osteosarcoma (HOS), human colon carcinoma (HT29), murine fibroblasts (T221acZ) and the human melanoma (Arn8) cell lines were cultured in Dubecco's Modified Eagle Medium (DMEM) supplemented with 10% fetal bovine serum. Tested compounds were added from 50 mM stock solution in dimethyl-sulphoxide (DMSO) into the culture medium at final concentration 20 μM. Control cells received an equivalent volume of DMSO.
β-galactosidase activity of human melanoma cell line […] T221acZ (both stabile transfected with a p53-responsive reporter construct pRGCΔfoslacZ) (Frebung et al., Cancer Res., 52, 1992-6976) was determined. For the determination of total β-galactosidase activity, cells were lysed by 3 freeze-thaw cycles in 0.25 M Tris pH 7.5, and lysates were assayed as described by Sambrook et al., Mol. cloning, New York, 1989.
Effect of 25 and related compounds on activation of p53 protein was also analyzed in human melanoma cell line Arn8 and murine fibroblast cell line T22LacZ expressing β-galactosidase under control of p53 responsive promoter. Induction of wt p53 in these cells treated with 20 μM 25 (6, 12 and 24 hrs) leads to activation of responsive promoter and consequently to expression of β-galactosidase. Arn8 and T221acZ cells treated with 25 were fixed and examined microscopically for β-galactosidase activity using X-gal substrate leading to about 25% blue-colored cells compared to less than 1% of blue-colored cells in DMSO-treated control cells (data not shown). The total β-galactosidase activity in Arn8 cells was also assessed using colorimetric assay.

MMK1 protein kinase = MMK1 protein kinase (Vicia faba, UniProt A0AAV1B7B8); experiment: MMK1 protein kinase activity; type: biochemical
Outline: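 Plant CDK was purified from extracts on p13^suc1-beads or by anti-cdc2a-MS immunopurification, and MMK1 was immunopurified from Vicia faba extracts. Kinase activity was read as radioactivity incorporated into histone H1 or myelin basic protein, quantified by phosphoimager.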

β-adrenergic receptors = experiment: Modulation of isoproterenol-induced cAMP synthesis in rat C6 glioma; type: cell-based; details: cAMP synthesis induced by 5 μM (−) isoproterenol; for IC50: read-out: I50
Description: Mechanism of action of novel compounds is presented on FIG. 3. Rat C6 glioma (ATCC N° CCL107) was cultivated in monolayer in serum-free chemically defined medium containing Ham's F10/minimal essential medium (1:1 vol/vol), 2 mM L-glutamine, 1% (vol/vol) minimal essential medium vitamins (100×), 1% (vol/vol) minimal essential medium nonessential amino acids (100×), 100 U/ml penicillin, 100 μg/ml streptomycin and 30 nM sodium selenide. Incubation was at 37° C. in a humidified atmosphere. Assays were performed in the logarithmic growth phase at a density of 2.5×10^5 cells/cm^2. Intracellular cAMP synthesis was induced by addition of 5 μM (−) isoproterenol. After 30 min incubation at 37° C. the medium was removed and the cellular amount of cAMP determined using the cAMP-enzyme immunoassay kit of Amersham. The I50 is determined from a dose-response curve in duplicate.
The effect of seven purine-analogs was measured after simultaneous addition with isoproterenol.

[3] = system: Cytokinin-dependent tobacco callus Nicotiana tabacum L. cv. Wisconsins 38; experiment: Tobacco callus bioassay for cytotoxicity (herbicidal activity); type: cell-based; details: Nicotiana tabacum, 672 h
Outline: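 Compounds were prepared in DMSO as a 10^−3 M stock in water. Growth inhibition was scored from fresh callus weight gain after four weeks, with five replicates and the test run at least twice.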

cdk1/cyclin B (CDC2) = cdk1/cyclin B (CDC2) (Homo sapiens, UniProt P06493); experiment: CDK inhibition assay, cdk1/cyclin B (CDC2) kinase, histone phosphorylation; type: biochemical
Outline: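 Human cdk1/cyclin B activity measured with 1 mg/ml histone substrate, 15 μM ATP plus [γ-32P]ATP, in HEPES pH 7.4 buffer with 10 mM MgCl2. Phosphorylation quantified by phosphorimaging; activity expressed as % of maximum, IC50 from dose-response curves by graphic analysis.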

[4] = system: T-lymphocyte leukemia Molt3 cell line; experiment: Cell proliferation of Molt3, flow cytometric cell count; type: cell-based, human; details: 96 hours
Description: (§1) Cell lines: Human leukemic cell lines were obtained from the American Type Culture Collection (ATCC, Rockville, Md., USA). They were cultured in Iscove's Modified Dulbecco's Medium (IMDM) supplemented with 10% heat inactivated fetal calf serum (FCS), 200 U/ml penicillin, 200 μg/ml streptomycin and 1 μg/ml amphotericin B. Cells were cultured in a 5% CO2-95% air fully humidified incubator. For effects on clonogenic output, 1000 cells/well were plated in duplicate in methylcellulose (0.9%), supplemented with 20% FCS for 14 days.
(§2) Cells were plated at 10000 per well in 200 μl IMDM medium and incubated with 0-50 μM of the novel compounds (Tab 8), by addition of drug directly to the culture medium and incubated at 37° C. for 96 hours (Tab 8). Absolute cell number was determined by addition of a known concentration Fluoresbrite microspheres (FITC) (Polysciences, Inc.). The absolute number of cells/well was calculated as: {(total number of beads added/well)/(number of beads measured)×(number of measured cells in the gate of interest)}. All analyses were performed with a FACScan (BD), using CELLQuest software (Becton Dickinson).
(§3) Response of the myeloid leukemia KG1 and T-lymphocyte leukemia Molt3 cell lines to the cytostatic effect of the novel compounds was determined using the above-mentioned standardized bead suspension that was used to determine the absolute cell number by flow cytometric (FCM) measurement. Cells were grown in the presence of increasing concentration of the novel compounds.

[5] = system: PHA-stimulated lymphocytes (PBMC); experiment: Proliferation of PHA-stimulated lymphocytes (PBMC), flow cytometric cell count; type: cell-based, human; details: 96 hours, IL-2
Description: Peripheral blood mononuclear cells (PBMC): Human peripheral blood mononuclear cells were isolated by density gradient (Ficoll-Hypaque) (LSM, ICN Biomedicals Inc.). PBMC were stimulated with 5 μg/ml phytohemaglutinin A (PHA) (Sigma) during 24-48 hours in IMDM supplemented with 10% FCS at 37° C. After washing off the PHA, PBMC were incubated with interleukin-2 (IL-2) (10 U/ml) (Genzyme).
as §2
PHA-stimulated lymphocytes (PBMC) were tested for their cytotoxicity as one of the normal counterparts of the cell lines. Cells were grown for 96 hours in the presence of IL-2 and different concentrations of the novel compounds and cell number was counted on the flow cytometer.

[6] = system: myeloid leukemia KG1 cell line; experiment: Cell proliferation of KG1, flow cytometric cell count; type: cell-based, human; details: 96 hours, read-out: KG1 IC50
Description: as §1, §2, §3
To determine reversibility of the effects of the novel compounds, cells were plated at 10000 per well and exposed to 0-50 μM of the compounds for the time indicated, followed by washing in phosphate-buffered saline (PBS) (Life Technologies) and reseeded into drug-free medium for 7 additional days. An identical set of cells was plated and exposed to the drugs for 7 additional days. After 7 days (168 hours), the relative cell number was assayed by flow cytometry.

Chain of cdk1/cyclin B (CDC2) (P06493 whole entry, species assumed): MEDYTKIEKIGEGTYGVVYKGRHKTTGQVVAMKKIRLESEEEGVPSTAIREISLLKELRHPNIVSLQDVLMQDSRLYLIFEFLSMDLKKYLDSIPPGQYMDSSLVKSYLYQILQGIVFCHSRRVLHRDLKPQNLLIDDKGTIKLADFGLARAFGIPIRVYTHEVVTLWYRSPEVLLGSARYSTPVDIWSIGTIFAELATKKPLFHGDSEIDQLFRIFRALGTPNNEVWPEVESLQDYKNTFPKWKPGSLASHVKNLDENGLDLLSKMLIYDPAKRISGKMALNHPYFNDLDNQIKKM
Chain of cdk1/cyclin B (CDC2) (P14635 whole entry partner, species assumed): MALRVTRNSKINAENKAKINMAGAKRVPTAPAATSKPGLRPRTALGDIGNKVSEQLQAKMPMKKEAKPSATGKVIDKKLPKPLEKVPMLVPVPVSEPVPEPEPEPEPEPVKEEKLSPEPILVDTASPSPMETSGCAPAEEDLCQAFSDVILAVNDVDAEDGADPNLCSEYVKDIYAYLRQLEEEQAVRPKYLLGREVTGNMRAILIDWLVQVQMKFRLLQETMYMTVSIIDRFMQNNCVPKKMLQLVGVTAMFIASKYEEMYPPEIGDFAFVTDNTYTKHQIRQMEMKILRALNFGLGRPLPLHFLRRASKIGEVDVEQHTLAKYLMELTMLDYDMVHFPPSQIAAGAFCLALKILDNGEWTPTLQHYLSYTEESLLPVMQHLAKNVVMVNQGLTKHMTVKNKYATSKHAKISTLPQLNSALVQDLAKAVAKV
Chain of MMK1 protein kinase (A0AAV1B7B8 1-394): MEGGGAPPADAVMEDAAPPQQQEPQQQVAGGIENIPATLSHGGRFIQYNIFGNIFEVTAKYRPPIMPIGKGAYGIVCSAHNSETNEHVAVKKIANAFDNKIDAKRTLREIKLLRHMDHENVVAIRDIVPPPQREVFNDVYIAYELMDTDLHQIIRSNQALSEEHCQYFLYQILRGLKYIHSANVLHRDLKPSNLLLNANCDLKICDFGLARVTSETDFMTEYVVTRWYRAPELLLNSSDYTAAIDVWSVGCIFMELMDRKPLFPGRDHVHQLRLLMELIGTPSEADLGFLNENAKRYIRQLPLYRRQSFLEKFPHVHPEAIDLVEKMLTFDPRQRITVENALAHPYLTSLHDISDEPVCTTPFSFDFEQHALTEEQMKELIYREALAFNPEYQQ

CC(C)c1n[nH]c2c(Nc3cccc(Cl)c3)nc(N[C@@H](CO)C(C)C)nc12
EC50 (normal human lymphocytes): 3.2 µM
GI50 [1]: 1.2 µM
GI50 (B16): 1.7 µM
Max β-Gal. Activtity Conc. [2]: 7 µM

CC[C@H](CO)Nc1nc(Nc2cccc(Cl)c2)c2[nH]nc(C(C)C)c2n1
EC50 (normal human lymphocytes): 1.8 µM
Max β-Gal. Activtity Conc. [2]: 12 µM

CC[C@H](CO)Nc1nc(NCc2ccc(OC)cc2)c2[nH]nc(C(C)C)c2n1
Max β-Gal. Activtity Conc. [2]: 0.8 µM

CC[C@H](CO)Nc1nc(NCc2ccccc2)c2[nH]nc(C)c2n1
EC50 (normal human lymphocytes): 9.5 µM
IC50 (MMK1 protein kinase): 1.3 µM
GI50 [1]: 3.4 µM
GI50 (B16): 4.2 µM
Max β-Gal. Activtity Conc. [2]: 9.5 µM

CC(C)c1n[nH]c2c(NCc3ccccc3)nc(NC(CO)C(C)C)nc12 (stereo not drawn)
Effect (β-adrenergic receptors; simultaneous addition, 30 min): inhibition
IC50 (β-adrenergic receptors): 25 ± 2 µM

CC[C@H](CO)Nc1nc(NCc2ccc(O)cc2)c2[nH]nc(C(C)C)c2n1
Effect: activation (β-adrenergic receptors; simultaneous addition, 30 min): 1.8-fold activation

CC(C)c1n[nH]c2c(Nc3cccc(Cl)c3)nc(NC3CCCC3)nc12
Max β-Gal. Activtity Conc. [2]: 11.5 µM

COc1ccc(CNc2nc(NC3CCCC3)nc3c(C(C)C)n[nH]c23)cc1
Max β-Gal. Activtity Conc. [2]: 21 µM

5-(hexylamino)-7-(1-phenyl-2-hydroxyethylamino)-3-isopropylpyrazolo[4,3-d]pyrimidine [Compound 98]
Effect (β-adrenergic receptors; simultaneous addition, 30 min): inhibition
IC50 (β-adrenergic receptors): 8 ± 1 µM

CC(C)c1n[nH]c2c(NCc3ccccc3)nc(NCCCN)nc12 [Compound 17, 5-(3-aminopropylamino)-7-benzylamino-3-isopropylpyrazolo[4,3-d]pyrimidine]
IC50 ([3]; read-out: 10^−5 M BAP IC50, 10^−5 M 6-benzylaminopurine, four weeks): > 50 µM
IC50 ([3]; read-out: 10^−6 M BAP IC50, 10^−6 M 6-benzylaminopurine, four weeks): 48 µM
IC50 (cdk1/cyclin B (CDC2)): 0.08 µM
IC50 (β-adrenergic receptors): 25 ± 2 µM

CCC(CO)Nc1nc(NCc2ccc(O)c(O)c2)c2[nH]nc(C(C)C)c2n1 (stereo not drawn) [Compound 47, 5-(1-ethyl-2-hydroxyethylamino)-7-(3,4-dihydroxybenzyl)amino-3-isopropylpyrazolo[4,3-d]pyrimidine]
IC50 ([4]; Homo sapiens, MOLT-3): 10 ± 1 µM
IC50 ([5]; Homo sapiens, Lymphocyte): 3 ± 1.2 µM
IC50 (cdk1/cyclin B (CDC2); cell free system (Table 8)): 1.2 µM
IC50 ([6]; Homo sapiens, KG-1): 8 ± 1 µM

CC(C)c1n[nH]c2c(NC(CO)c3ccccc3)nc(N3CCOCC3)nc12 (stereo not drawn) [Compound 85, 5-(morpholino)-7-(1-phenyl-2-hydroxyethylamino)-3-isopropylpyrazolo[4,3-d]pyrimidine]
IC50 ([4]; Homo sapiens, MOLT-3): 20 ± 1.3 µM
IC50 ([5]; Homo sapiens, Lymphocyte): 20 ± 7.7 µM
IC50 (cdk1/cyclin B (CDC2); cell free system (Table 8)): 5.5 µM
IC50 ([6]; Homo sapiens, KG-1): 28 ± 1.5 µM

CC(C)c1n[nH]c2c(SCc3ccccc3)nc(NCCCO)nc12 [Compound 145, 5-(3-hydroxypropylamino)-7-benzylthio-3-isopropylpyrazolo[4,3-d]pyrimidine]
IC50 ([4]; Homo sapiens, MOLT-3): 19 ± 2 µM
IC50 ([5]; Homo sapiens, Lymphocyte): 18 ± 1.6 µM
IC50 (cdk1/cyclin B (CDC2); cell free system (Table 8)): > 50 µM
IC50 ([6]; Homo sapiens, KG-1): 42 ± 5 µM

CC(C)c1n[nH]c2c(N[C@@H](CO)c3ccccc3)nc(NC[C@H](O)CO)nc12 [Compound 158, 5-(2,3-dihydroxypropylamino)-7-[(R,S)-(1-phenyl-2-hydroxyethyl)amino]-3-isopropylpyrazolo[4,3-d]pyrimidine]
IC50 [4]: 13.4 ± 1.4 µM
IC50 [5]: 10 ± 1 µM
IC50 (cdk1/cyclin B (CDC2); cell free system (Table 8)): > 50 µM
IC50 [6]: 12 ± 1 µM
